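Compound exposure: 48 hours, 5 concentrations, 96-well plates. GI50 marks 50% less growth.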 The source made the active and inactive calls. No stated cut-off is given here; in the data, active = GI50 up to about 1.1 µM and inactive = higher.
Assays:
Test in all cases: NCI anticancer screen, dose series, 48 h
DU-145 = test system: DU-145
BT-549 = test system: BT-549
MCF7 = test system: MCF7
U-251 = test system: U-251
HCT-116 = test system: HCT-116
SN12C = test system: SN12C
HCT-15 = test system: HCT-15
ACHN = test system: ACHN
SW-620 = test system: SW-620
NCI-H522 = test system: NCI-H522
NCI-H23 = test system: NCI-H23
COLO 205 = test system: COLO 205
HL-60 = test system: HL-60
HOP-92 = test system: HOP-92
NCI-H460 = test system: NCI-H460
M14 = test system: M14
UACC-257 = test system: UACC-257
SK-OV-3 = test system: SK-OV-3
EKVX = test system: EKVX
A498 = test system: A498
LOX IMVI = test system: LOX IMVI
HCC 2998 = test system: HCC 2998
HOP-62 = test system: HOP-62
MDA-N = test system: MDA-N
HT-29 = test system: HT-29
KM12 = test system: KM12
IGROV-1 = test system: IGROV-1
SK-MEL-2 = test system: SK-MEL-2
OVCAR-3 = test system: OVCAR-3
A549 = test system: A549
SF-268 = test system: SF-268
CAKI-1 = test system: CAKI-1
TK-10 = test system: TK-10
SK-MEL-5 = test system: SK-MEL-5
UO-31 = test system: UO-31
MOLT-4 = test system: MOLT-4
RPMI-8226 = test system: RPMI-8226
OVCAR-8 = test system: OVCAR-8
786-0 = test system: 786-0
UACC-62 = test system: UACC-62
OVCAR-4 = test system: OVCAR-4
K562 = test system: K562
SF-539 = test system: SF-539
OVCAR-5 = test system: OVCAR-5
Hs-578T = test system: Hs-578T
SNB-75 = test system: SNB-75
MDA-MB-435 = test system: MDA-MB-435
T47D = test system: T47D
PC-3 = test system: PC-3
RXF 393 = test system: RXF 393
CCRF-CEM = test system: CCRF-CEM
NCI/ADR-RES = test system: NCI/ADR-RES
SK-MEL-28 = test system: SK-MEL-28
SR = test system: SR
SF-295 = test system: SF-295
Malme-3M = test system: Malme-3M
SNB-19 = test system: SNB-19

CC(C)(C)c1ccc(-c2nc3ccccc3c(=O)o2)cc1
GI50 (DU-145): 59.7 µM (inactive)
GI50 (BT-549): 24.2 µM (inactive)
GI50 (MCF7): 27.7 µM (inactive)
GI50 (U-251): 40.6 µM (inactive)
GI50 (HCT-116): 38.7 µM (inactive)
GI50 (SN12C): 34.3 µM (inactive)
GI50 (HCT-15): 37.5 µM
GI50 (ACHN): 33.7 µM (inactive)
GI50 (SW-620): 48.2 µM (inactive)
GI50 (NCI-H522): 30.3 µM (inactive)
GI50 (NCI-H23): 34.3 µM (inactive)
GI50 (COLO 205): 30.6 µM (inactive)
GI50 (HL-60): 23.1 µM (inactive)
GI50 (HOP-92): 28 µM (inactive)
GI50 (NCI-H460): 33.3 µM (inactive)
GI50 (M14): 42.3 µM (inactive)
GI50 (UACC-257): 81.3 µM (inactive)
GI50 (SK-OV-3): 83.4 µM (inactive)
GI50 (EKVX): 30.7 µM (inactive)
GI50 (A498): 71.6 µM (inactive)
GI50 (LOX IMVI): 18.7 µM (inactive)
GI50 (HCC 2998): 54.8 µM (inactive)
GI50 (HOP-62): 31.8 µM (inactive)
GI50 (MDA-N): 41.2 µM (inactive)
GI50 (HT-29): 42 µM (inactive)
GI50 (KM12): 29.1 µM (inactive)
GI50 (IGROV-1): 37.3 µM (inactive)
GI50 (SK-MEL-2): 22.8 µM (inactive)
GI50 (OVCAR-3): 24.5 µM (inactive)
GI50 (A549): 27.9 µM (inactive)
GI50 (SF-268): 53.6 µM (inactive)
GI50 (CAKI-1): 86.3 µM (inactive)
GI50 (TK-10): 70.1 µM (inactive)
GI50 (SK-MEL-5): 17 µM (inactive)
GI50 (UO-31): 43.1 µM (inactive)
GI50 (MOLT-4): 20.4 µM (inactive)
GI50 (RPMI-8226): 25.5 µM (inactive)
GI50 (OVCAR-8): 47.4 µM (inactive)
GI50 (786-0): 74.6 µM (inactive)
GI50 (UACC-62): 30.3 µM (inactive)
GI50 (OVCAR-4): 35.7 µM (inactive)
GI50 (K562): 35.6 µM (inactive)
GI50 (SF-539): 40.6 µM (inactive)
GI50 (OVCAR-5): 44.2 µM (inactive)
GI50 (Hs-578T): 68.7 µM (inactive)
GI50 (SNB-75): 24 µM (inactive)
GI50 (MDA-MB-435): > 100 µM (inactive)
GI50 (T47D): 39.8 µM (inactive)
GI50 (PC-3): 38.4 µM (inactive)
GI50 (RXF 393): 95.9 µM (inactive)
GI50 (CCRF-CEM): 19.3 µM (inactive)
GI50 (NCI/ADR-RES): 55.2 µM (inactive)
GI50 (SK-MEL-28): 42.5 µM (inactive)
GI50 (SR): 22.5 µM (inactive)
GI50 (SF-295): 23.8 µM (inactive)
GI50 (Malme-3M): 35.8 µM (inactive)
GI50 (SNB-19): 43.1 µM (inactive)
